Measurements taken from US20240325303A1, “KETOROLAC LIQUID COMPOSITION, PREPARATION METHOD THEREFOR, AND APPLICATION THEREOF” (SHANGHAI AURORA BIOTECHNOLOGY CO., LTD., priority 2021, published 2024).

Legend:
[1] = standard animal models for analgesic effect; cited from earlier work
[2] = multiple tests; cited from earlier work
[3] = compared with morphine; cited from earlier work
human plasma protein = test: in vitro
Experimental: Samples at the dosing and receiving ends and at the preparation instant (0 h) were assayed by LC-MS/MS, and the plasma protein binding (PPB) rates and the recovery rates were calculated based on the assay results. The plasma samples and PBS samples prepared from the test samples and the commercially available controls were incubated at 37° C. for 6 h with oscillation (100 rpm) and then assayed for stability.

O=C(c1ccccc1)c1ccc2n1CCC2C(=O)O (centres unmarked) [Ketorolac tromethamine]
analgesic activity compared with indomethacin, naproxen, phenylbutazone [1]: stronger than that of indomethacin and naproxen, and equivalent to or better than that of phenylbutazone
analgesic activity relative to aspirin [1]: 800 times
anti-inflammatory activity compared with indomethacin, naproxen, phenylbutazone [2]: equivalent to or stronger than that of indomethacin, stronger than that of naproxen, and significantly better than that of phenylbutazone
relieving postsurgical pain [3]: superior to morphine

CC(=O)CC(c1ccccc1)c1c(O)c2ccccc2oc1=O (centres unmarked) [Warfarin]
recovery at 6 h, 300 ng/mL (human plasma protein): 96.2%
